Numbers after ± are expanded uncertainties.
Test: molar heat capacity at constant pressure
Details: Gas, Flow calorimetry

FC(F)C(F)(F)F [pentafluoroethane]
Details | molar heat capacity at constant pressure [J/K/mol]
303.15 K, 1500 kPa | 129.62 ± 4.8
307.15 K, 1500 kPa | 123.62 ± 1.7
311.15 K, 1500 kPa | 121.1 ± 3.6
313.15 K, 1500 kPa | 121.58 ± 2.4
314.15 K, 2000 kPa | 147.63 ± 6
315.15 K, 2000 kPa | 145.71 ± 3.6
316.15 K, 2000 kPa | 145.35 ± 3.6
317.15 K, 2000 kPa | 144.27 ± 3.6
318.15 K, 2000 kPa | 143.43 ± 6
319.15 K, 2000 kPa | 140.18 ± 3.6
319.15 K, 2200 kPa | 158.55 ± 3.6
320.15 K, 2000 kPa | 138.38 ± 6
320.15 K, 2200 kPa | 159.03 ± 3.6
321.15 K, 2000 kPa | 139.7 ± 4.8
321.15 K, 2200 kPa | 156.99 ± 2.4
322.15 K, 2000 kPa | 135.62 ± 3.6
323.15 K, 2200 kPa | 153.75 ± 6
323.15 K, 2400 kPa | 173.91 ± 7.2
324.15 K, 2400 kPa | 168.03 ± 5.3
325.15 K, 2400 kPa | 161.31 ± 4.8
326.15 K, 2400 kPa | 159.03 ± 7.2
327.15 K, 2400 kPa | 157.47 ± 7.2
343.15 K, 500 kPa | 103.22 ± 3.6
343.15 K, 650 kPa | 105.62 ± 3.6
343.15 K, 1000 kPa | 108.26 ± 2.4
343.15 K, 1500 kPa | 115.7 ± 2.4
343.15 K, 2000 kPa | 123.14 ± 2.3
343.15 K, 2200 kPa | 128.3 ± 2.4
343.15 K, 2400 kPa | 134.42 ± 2.3
